Experimental data: patent US12435059B2, “AMP-activated protein kinase inhibitors and methods of making and using the same” (The Regents of the University of Colorado, priority 2019, dated 2025)

Experiments:
BTK = BTK (Homo sapiens (Human), UniProt Q06187); experiment: Kinome binding analysis at 100 nM, BTK; details: for BTK inhibition, in words: 100 nM
K562 cells = experiment: Annexin-V/DAPI flow cytometry viability of K562 cells under hypoxic culture conditions; format: cell-based; details: K562, 5% O2, RPMI-1640, 72 hours
Description: FIG. 4 are a series of graphs showing the cell viability of K562 cells grown under hypoxic culture conditions and treated with compounds of the present disclosure. […] After pre-incubation cells were treated with the compounds of the present disclosure for 24 hours (left panel) and 72 hours (right panel) in a hypoxic environment. After treatment cells, were stained with Annexin-V-APC and DAPI in annexin buffer, incubated for 15 minutes at 4° C. and analyzed immediately by flow cytometry (Celesta, BD Bioscience). Viable cells were scored as Annexin V-negative and DAPI-negative population. A high-throughput sampler (BD Bioscience) was used to allow automated sampling processes. (n=3, error bars: ±S.D.).

CSF1R = CSF1R (Homo sapiens (Human), UniProt P07333); experiment: Kinome binding analysis at 100 nM, CSF1R; details: read-out: Percentage inhibition at 100 nM, CSF1R
AMPKα1 [1] = target: T1, AMPKα1 (Homo sapiens (Human), UniProt Q13131); experiment: LANCE Eu TR-FRET recombinant kinase assay, AMPK(α1); format: biochemical; details: mean±S.D. (n=3); ATP 8 μM; read-out: IC50 (nM) AMPK(α1)
Description: Assays were performed at 25° C. in a reaction mixture consisting of 2.5 μL serially diluted inhibitor solution, 2.5 μL kinase, 2.5 μL ATP and 2.5 μL substrate. Reagents were incubated for 1 hr before the reaction was halted through the addition of EDTA (10 mM) after which Eu anti-phospho-CREB (Ser133) antibody (PerkinElmer) was added at a final concentration of 2 nM for 1 hr. […] (n=3)).

KDR = KDR (Homo sapiens (Human), UniProt P35968); experiment: LanthaScreen Eu TR-FRET KDR competitive binding assay; details: read-out: IC50 (nM) KDR; mean±S.D. (n=3); competitive binding
468 kinases [2] = target: 468 kinases (Homo sapiens, UniProt P19784); experiment: biochemical; format: binding; details: CSNK2A2; read-out: % Inhibition @ 100 nM
468 kinases [3] = target: 468 kinases (Homo sapiens, UniProt P00519, E255K); experiment: biochemical; format: binding; details: ABL1 (E255K)-phosphorylated; read-out: % Inhibition @ 100 nM
468 kinases [4] = target: 468 kinases (Homo sapiens, UniProt Q08345); experiment: biochemical; format: binding; details: DDR1; read-out: % Inhibition @ 100 nM
468 kinases [5] = target: 468 kinases (Homo sapiens, UniProt Q13470); experiment: biochemical; format: binding; details: TNK1; read-out: % Inhibition @ 100 nM
468 kinases [6] = target: 468 kinases (Homo sapiens, UniProt P00519, Y253F); experiment: biochemical; format: binding; details: ABL1 (Y253F)-phosphorylated; read-out: % Inhibition @ 100 nM
cellular AMPK = experiment: p-ACC(Ser79) ELISA in K562 cell lysates (glucose-free media, 2-DG); format: cell-based; details: K562, dose response, FIG. 2B
Description: FIGS. 2A and 2B are a series of graphs showing the effects of compounds of the present disclosure on cellular levels of p-ACC(Ser79) in K562 cells. FIG. 2A Quantitative ELISA determination of p-ACC(Ser79) levels in K562 lysates (1.0 mg mL^−1 total protein) following growth in glucose-free media for 24 h, 2-DG (12 mM) treatment for 1 h followed by treatment with inhibitor compounds at 5.0 μM for 2 h. Relative p-ACC levels are reported as a percentage of levels resultant from DMSO control treatment. […] Cells were collected, washed with PBS and lysed on ice in lysis buffer containing 1% Triton X (Cell Signaling). Lysates were someated (1×5 seconds) and centrifuged for 10 minutes at 10,000 rpm and 4° C., and the protein concentration in supernatants was determined by Lowry assay. Lysates were diluted with ELISA PathScan® sample diluent to a final volume of 100 μL and protein concentration of 1.0 mg/ml prior to use. The concentration of p-ACC (Ser79) was determined using an enzyme-linked immunosorbent assay according to recommended protocol (Cell Signaling, ELISA PathScan® phospho-Acetyl-CoA Carboxylase (Ser79)) and expressed as a relative percentage of the DMSO control.
The AMPK substrate ACC is used as a biomarker for the relative activity of AMPK, and the levels of p-ACC(Ser79) were measured by ELISA in the absence or presence of the compounds to determine the compounds' effects on cellular AMPK activity. The presence of total AMPK, p-AMPK, total ACC, and p-ACC was measured by Western blot in a panel of leukemic cell lines grown in glucoe competent or glucose-free media. […] The cell lysates from K562 cells grown in glucose-free media in the presence 2-DG and treated with compounds of the present disclosure were analyzed by the p-ACC(Ser79) ELISA to determine the effect of the compounds on cellular AMPK activity.

AMPKα1 [7] = target: T1, AMPKα1; experiment: Kinome binding analysis at 100 nM, AMPK(α1); details: read-out: Percentage inhibition at 100 nM, AMPK(α1)
468 kinases [8] = target: 468 kinases (Homo sapiens, UniProt Q8TDX7); experiment: biochemical; format: binding; details: NEK7; read-out: % Inhibition @ 100 nM
468 kinases [9] = target: 468 kinases (Homo sapiens, UniProt Q6P2M8); experiment: biochemical; format: binding; details: CAMK1B; read-out: % Inhibition @ 100 nM
468 kinases [10] = target: 468 kinases (Homo sapiens, UniProt Q13882); experiment: biochemical; format: binding; details: BRK; read-out: % Inhibition @ 100 nM
468 kinases [11] = target: 468 kinases (Homo sapiens, UniProt Q8IY84); experiment: biochemical; format: binding; details: NIMI; read-out: % Inhibition @ 100 nM
468 kinases [12] = target: 468 kinases (Homo sapiens, UniProt Q9UEW8); experiment: biochemical; format: binding; details: STK39; read-out: % Inhibition @ 100 nM
468 kinases [13] = target: 468 kinases (Homo sapiens, UniProt Q16512); experiment: biochemical; format: binding; details: PKN1; read-out: % Inhibition @ 100 nM
468 kinases [14] = target: 468 kinases (Homo sapiens, UniProt Q13163); experiment: biochemical; format: binding; details: MEK5; read-out: % Inhibition @ 100 nM

Row | SMILES | BTK inhibition, in words (BTK) | Cell viability under hypoxic conditions after 72 hours (K562 cells) | inhibition at 0.1 µM (CSF1R) [%] | IC50 (AMPKα1 [1]) [nM] | IC50 (KDR) [nM] | inhibition at 0.1 µM (468 kinases [2]) [%] | inhibition at 0.1 µM (468 kinases [3]) [%] | inhibition at 0.1 µM (468 kinases [4]) [%] | inhibition at 0.1 µM (468 kinases [5]) [%] | inhibition at 0.1 µM (468 kinases [6]) [%] | p-ACC level reduction across concentration range compared with sunitinib (cellular AMPK) | inhibition at 0.1 µM (AMPKα1 [7]) [%] | inhibition at 0.1 µM (BTK; read-out: Percentage inhibition at 100 nM, BTK) [%] | inhibition at 0.1 µM (468 kinases [8]) [%] | inhibition at 0.1 µM (468 kinases [9]) [%] | inhibition at 0.1 µM (468 kinases [10]) [%] | inhibition at 0.1 µM (468 kinases [11]) [%] | inhibition at 0.1 µM (468 kinases [12]) [%] | inhibition at 0.1 µM (468 kinases [13]) [%] | inhibition at 0.1 µM (468 kinases [14]) [%]
1 | CCN(CC)CCNC(=O)c1c(C)[nH]c(/C=C2\C(=O)Nc3ccc(CCO)cc32)c1C [Compound No. 10, (Z)—N-(2-(Diethylamino)ethyl)-5-((5-(2-hydroxyethyl)-2-oxoindolin-3-ylidene)methyl)-2,4-dimethyl-1H-pyrrole-3-carboxamide] | no observable effect | marked decrease in cell viability | 24 | 173 ± 15 | 848 ± 41 | 0 | 35 | 0 | 9 | 5 | significant reduction of p-ACC levels compared to sunitinib at all concentrations tested except for 50 μM | 49 | – | – | – | – | – | – | – | –
2 | CCN(CC)CCNC(=O)c1c(C)[nH]c(/C=C2\C(=O)Nc3ccc(CCC(N)=O)cc32)c1C [Compound No. 16, (Z)-5-((5-(3-Amino-3-oxopropyl)-2-oxoindolin-3-ylidene)methyl)-N-(2-(diethylamino)ethyl)-2,4-dimethyl-1H-pyrrole-3-carboxamide] | no observable effect | no measurable impact on cell viability | 18 | 107 ± 17 | 3820 ± 530 | – | – | – | – | – | significant reductions at both 3.125 μM and 12.5 μM | 29 | 0 | 5 | 30 | 1 | 67 | 12 | 24 | 80
